Laboratory results from patent US10844049B2, “GLP-1R agonists and uses thereof” (QILU REGOR THERAPEUTICS INC., priority 2018, dated 2020).

Experiments:
[1] = biological target: T1, GLP1R (Homo sapiens, UniProt P43220); test: GLP1R cAMP HTRF assay, HEK293/GLP-1R/CRE/Luc (HEK293T cells); type: cell-based; conditions: read-out: EC50
Procedure, shortened: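 cAMP accumulation via HTRF after 30 min, 37 °C exposure of 1000 receptor-expressing cells/well to compound (0.5% DMSO final) in IBMX (500 μM)/0.1% BSA DPBS.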

[2] = biological target: T1, GLP1R; test: GLP-1R/β-Arrestin recruitment assay (PathHunter eXpress GLP1R CHO-K1 β-Arrestin GPCR Assay); type: cell-based; set-up: host or cells: PathHunter CHO-K1 GLP1R β-Arrestin cells; conditions: averaged Bmax, percentage of control GLP-1 (7-37), highest concentration tested
Text: GLP-1R agonist activity with respect to β-arrestin recruitment can be determined with a cell-based functional assay using PathHuntcr eXpress GLP1R CHO-K1 β-Arrestin GPCR Assay kit (DiscovcrX Cat #93-0300E2CP0M).
The PathHunter β-Arrestin GPCR assay technology utilizes a β-galactosidase (β-gal) enzyme that is split into two fragments, the smaller Enzyme Donor (ED) and the larger Enzyme Acceptor (EA). These fragments can be fused to two proteins that may interact with each other, such as EA-β-Arrestin and ED-GLP-1R. The fusions can be stably expressed in a test cell line, such as the PathHunter CHO-K1 GLP1R β-Arrestin cells described below.
Independently, these fragment fusions have no β-gal activity; however, in solution or in a living cell, they can be brought together and complement to form an active β-gal enzyme due to the interaction between the fused proteins, thus generating a chemiluminescent signal in the presence of a suitable β-gal substrate.
In this experiment, PathHunter CHO-K1 GLP1R β-Arrestin cells from the assay kit were plated at a density of 1000 or 2000 cells/20 μl/well in a 384-well white/clear bottom plates (Greiner Cat #781098). Frozen cells were quickly thawed and 10 mL of cell plating medium (provided by the kit) was added to thawed cells. Cells were stored in a 37° C. incubator under 5% CO2 and kept for approximately 48 hours until ready to ran the assay.
Reference and test compounds were dissolved in 100% DMSO. 5× concentration of an agonist was prepared in serum free DMEM (Thermo Cat #11965). 5 μL of this solution was added to 20 μL cell medium in assay plate for a final top concentration of 10 μM. Plates were then incubated at 37° C. under 5% CO2 for 90 min.
(§1) Following 90 min incubation, detection reagents were made up by combining 1 part Galacton Star Substrate with 5 parts Emerald II™ Solution, and 19 parts of PathHunter Cell Assay Buffer, respectively. 12.5 μL detection reagent was added to each well. The plates were then incubated at room temperature in dark for 60 min. Plates were then read on Envision for 0.1 sec/well.
(§2) EC50 determinations were made from agonist dose-response curves analyzed with a curve fitting program using a 4-parameter logistic dose response equation.
Cells were plated at a density of 1000 or 2000 cells/20 μL/well. Frozen cells were quickly thawed and added to 10 mL of cell plating medium. Cells were stored in a 37° C. incubator under 5% CO2 and left for approximately 48 hours until ready to run the assay.
• 1) Reference agonist compound GLP1 (7-37): dissolved with DMSO to make 1 mM stock solutions, aliquoted and stored at −80° C. • 2) Test compounds (such as the compounds of the invention) came solubilized in 100% DMSO.
Prepare 10× concentration of an agonist in serum free DMEM, and add all solutions into the compound plate. 2.5 μL of this solution was added to 20 μL cell medium in assay plate for a final top concentration of 10 μM. Plates were incubated at 37° C. under 5% CO2 for 30 min. An additional 2.5 μL of Buffer was added to the entire plate for agonist mode and incubated at 37° C. for another 90 min.
Following 90 min incubation, detection reagents were made up as described. 12.5 μL was added to all wells. The plates were then incubated at room temperature in dark for 60 min. Plates were then read on Envision for 0.1 sec/well.
Data analysis: GraphPad Prism 6 was used for establishment of progression curve. EC50S or IC50s were determined by 4-parameter logistic dose response equation.

[3] = biological target: T1, GLP1R; test: β-Arrestin-mediated GLP1R internalization assay (PathHunter engineered U2OS cells); type: cell-based; set-up: host or cells: PathHunter engineered U2OS cells; conditions: averaged Bmax, percentage of control GLP-1 (7-37), highest concentration tested
Text: A similar assay can also be used to assess the extent of signal attenuation due to GLP-1R internalization (the β-Arrestin Internalization Assay). In this assay, activated GLP1R Internalization cells were engineered to co-express an untagged GLP1R, Enzyme Acceptor (EA) tagged β-Arrestin, and a ProLink™ (PK) tag localized to the endosomes. Activation of the GLP1R induces β-Arrestin recruitment, which leads to internalization of the Receptor/Arrestin-EA complex in PK-tagged endosomes. This forces complementation of the two β-galactosidase enzyme fragments (EA and PK) to form a functional enzyme that hydrolyzes substrate to generate a chemiluminescent signal. These cells have been modified to prevent long term propagation and expansion using a proprietary compound that has no apparent effect on assay performance.
Specifically, PathHunter engineered U2OS cells from the assay kit (Cat #93-0724E3CP0L) were plated at a density of 2000 cells/20 μL/well in a 384-well white/clear bottom plates (Greiner Cat #781098). Frozen cells were quickly thawed and 10 mL of cell plating medium (provided by the kit) was added to thawed cells. Cells were stored in a 37° C. incubator and kept for approximately 48 hours until ready for the assay.
Reference and test compounds were dissolved in 100% DMSO. 5× concentration of an agonist was prepared in serum free DMEM (Thermo Cat #11965). 5 μL of this solution was added to 20 μL cell medium in assay plate for a final top concentration of 10 μM. Plates were incubated at 37° C. for 180 min.
as §1, with “180” for “90”, “temperature” for “temperature in dark”
as §2

[4] = Monkey oral pharmacokinetic (PK) study, non-naïve Cynomolgus male monkeys; type: in vivo; conditions: Dose 2
Method: Appropriate volumes of vehicles (e.g., 2% Tween 80 (v:v) and 0.5% MC (w:v) in saline or 0.5% MC (w:v) in water were then added into the mortar containing the ground compounds, and the mixture was then grinded with a pestle until a homogeneous paste was formed. Additional appropriate volumes of vehicles were added into the mortar containing each compound, and the mixture was grinded further with the pestle until a homogeneous suspension was obtained.
The rest of the vehicle was added to make up the final dosing volume of about 1 mg/mL or 2 mg/mL (i.e., final dosing volume of about 5 mL/kg), and the homogenous suspension was continuously stirred prior to and during the dosing.
Non-naïve Cynomolgus male monkeys (n=3/test article; sourced from Hainan Jingang Biotech Co., Ltd., Nayang Xmtan, Fucheng Town, Qiongshan District, Haikou City, Hainan Province, China); or non-naïve aged, obese, and diabetic male Macaca fascicularis monkeys (n=3/test article, Source: Kunming Biomed International Colony) were used in pre-clinical in vivo studies. All non-naïve Cynomolgus male monkeys were approximately 3 to 5 years old, weighed about 2.5-5 kg, and were within ±20% of the average body weight. All non-naïve aged, obese, and diabetic male Macaca fascicularis monkeys were approximately 12 to 20 years old, weighed about >8-12 kg.
All animals were fasted overnight before dosing, and the food were supplied approximately 4 hours post dose (with free access to water all the time).
Animals were restrained at designated time points for blood sampling. Approximately 500 μL of blood samples was taken via cephalic or saphenous vein into EDTA-K2 tubes. Blood samples were put on wet ice before centrifugation.
For oral administration (PO) of either Dose 1 or Dose 2: blood samples were collected at pre-dose, and at 15 min, 30 min, 1 hr, 2 hr, 4 hr, (6 hr for compounds 19 and 28 with cynomolgus monkeys only), 8 hr, 12 hr, and 24 hr post dose (i.e., 9 or 10 total time points for each compound at each dose).
The blood samples were centrifuged at approximately 2,000-4,000 rpm for about 10-15 minutes at 2-8′C, and each resulting plasma portion was then transferred into an individual tube.
LC-MS/MS methods were developed, and bioanalysis for the test articles in monkey plasma was performed according to the developed LC-MS/MS methods.
Undiluted plasma samples: An aliquot of 20-50 μL plasma sample was mixed with 200 μL of ACN or MeOH containing one of the internal standards (IS, e.g., Diclofenac or Terfenadine). The mixture was then vortexed for about 1-5 min, and centrifuged at about 4,000-5,800 rpm for about 10-15 min. An aliquot of 1 μL supernatant was used for LC-MS/MS analysis.
Pharmacokinetics parameters, including area under the curve (AUC0-t), maximum plasma concentration (Cmax), time to reach maximum plasma concentration (Tmax), oral bioavailability (F %), etc., were calculated using Phoenix software (Version 6.4) and non-compartment model.

[5] = male, cynomolgus monkey, plasma, oral

T1 sequence (P43220 24-463): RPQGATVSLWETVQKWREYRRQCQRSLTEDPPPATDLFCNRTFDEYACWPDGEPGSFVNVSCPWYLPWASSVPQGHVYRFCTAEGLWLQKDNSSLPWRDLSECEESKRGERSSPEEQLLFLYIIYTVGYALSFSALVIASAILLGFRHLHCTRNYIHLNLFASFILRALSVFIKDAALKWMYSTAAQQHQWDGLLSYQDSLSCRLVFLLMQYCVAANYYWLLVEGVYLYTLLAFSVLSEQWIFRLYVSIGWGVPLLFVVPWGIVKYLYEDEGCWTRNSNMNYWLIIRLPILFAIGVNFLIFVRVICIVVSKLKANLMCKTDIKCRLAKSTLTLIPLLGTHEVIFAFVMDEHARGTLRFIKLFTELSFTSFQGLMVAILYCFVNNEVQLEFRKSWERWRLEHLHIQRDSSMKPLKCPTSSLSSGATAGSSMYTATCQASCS

EC50 [1]	Bmax (POC) [2]	Bmax (POC) [3]	SMILES	other results
≤ 0.015 µM	2.80 POC		O=C(O)c1ccc2nc(CN3CCN(c4cccc(NCc5ccc(Cl)cc5F)n4)CC3)n(C[C@@H]3CCO3)c2c1 [Compound 1, (S)-2-((4-(6-(4-chloro-2-fluorobenzylamino)pyridin-2-yl)piperazin-1-yl)methyl)-1-(oxetan-2-ylmethyl)-1 h-benzo[d]imidazole-6-carboxylic acid]	
≤ 0.015 µM		27.03 POC	O=C(O)c1ccc2nc(CN3CCN(c4ccnc(OCc5ccc(Cl)cc5F)n4)CC3)n(C[C@@H]3CCO3)c2c1 [Compound 9, (S)-2-((4-(2-((4-chloro-2-fluorobenzyl)oxy)pyrimidin-4-yl)piperazin-1-yl)methyl)-1-(oxetan-2-ylmethyl)-1H-benzo[d]imidazole-6-carboxylic acid]	
≤ 0.15 µM	4.48 POC		N#Cc1ccc(COc2nccc(N3CCN(Cc4nc5ccc(C(=O)O)cc5n4C[C@@H]4CCO4)CC3)n2)c(F)c1 [Compound 10, (S)-2-((4-(2-((4-cyano-2-fluorobenzyl)oxy)pyrimidin-4-yl)piperazin-1-yl)methyl)-1-(oxetan-2-ylmethyl)-1H-benzo[d]imidazole-6-carboxylic acid]	
≤ 0.015 µM	7.16 POC		O=C(O)c1ccc2nc(CN3CCN(c4cncc(OCc5ccc(Cl)cc5F)n4)CC3)n(C[C@@H]3CCO3)c2c1 [Compound 11, (S)-2-((4-(6-(4-chloro-2-fluorobenzyloxy)pyrazin-2-yl)piperazin-1-yl)methyl)-1-(oxetan-2-ylmethyl)-1 h-benzo[d]imidazole-6-carboxylic acid]	
≤ 0.015 µM	9.66 POC		N#Cc1ccc(COc2cncc(N3CCN(Cc4nc5ccc(C(=O)O)cc5n4C[C@@H]4CCO4)CC3)n2)c(F)c1 [Compound 12, (S)-2-((4-(6-(4-cyano-2-fluorobenzyloxy)pyrazin-2-yl)piperazin-1-yl)methyl)-1-(oxetan-2-ylmethyl)-1 h-benzo[d]imidazole-6-carboxylic acid]	
≤ 0.015 µM		19.1 POC	O=C(O)c1ccc2nc(CN3CC=C(c4cccc(OCc5ccc(C(F)(F)F)nc5)n4)CC3)n(C[C@@H]3CCO3)c2c1 [Compound 45, (S)-1-(oxetan-2-ylmethyl)-2-((4-(6-((6-(trifluoromethyl)pyridin-3-yl)methoxy)pyridin-2-yl)-5,6-dihydropyridin-1(2H)-yl)methyl)-1 h-benzo[d]imidazole-6-carboxylic acid]	
≤ 0.015 µM		27.4 POC	O=C(O)c1ccc2nc(CN3CC=C(c4cccc(OCc5ccc(C(F)(F)F)cc5)n4)CC3)n(C[C@@H]3CCO3)c2c1 [Compound 46]	
≤ 0.015 µM		22.8 POC	CS(=O)(=O)NC(=O)c1ccc2nc(CN3CC=C(c4cccc(OCc5ccc(Cl)cc5F)n4)CC3)n(C[C@@H]3CCO3)c2c1 [Compound 47, (S)-2-((4-(6-(4-chloro-2-fluorobenzyloxy)pyridin-2-yl)-5,6-dihydropyridin-1(2H)-yl)methyl)-N-(methylsulfonyl)-1-(oxetan-2-ylmethyl)-1 h-benzo[d]imidazole-6-carboxamide]	
≤ 0.015 µM		24.2 POC	Fc1cc(Cl)ccc1COc1cccc(C2=CCN(Cc3nc4ccc(-c5nnn[nH]5)cc4n3C[C@@H]3CCO3)CC2)n1 [Compound 105, (S)-2-((4-(6-(4-chloro-2-fluorobenzyloxy)pyridin-2-yl)-5,6-dihydropyridin-1(2H)-yl)methyl)-1-(oxetan-2-ylmethyl)-6-(1H-tetrazol-5-yl)-1H-benzo[d]imidazole]	
			N#Cc1ccc(COc2cccc(C3CCN(Cc4nc5ccc(C(=O)O)cc5n4C[C@@H]4CCO4)CC3)n2)c(F)c1 [Compound 418, reference compound]	Tmax [4, 5]: 1.7 h; bioavailability [4, 5]: 8.17%; AUC0-24 h ([4]; oral): 774 Arbitrary units; Cmax ([4]; oral): 232 Arbitrary unit; drop in plasma concentration ([4]; over about 24 hours post oral dosing): about 10 fold
